# Assay results as given in US6613875B1, “Cyclic peptide tube” (The Scripps Research Institute, priority 1993, dated 2003).
# Square brackets hold non-standard residues; d marks the D form.
# Legend:
# [1] = Proton transport (collapse of pH gradient) in vesicles with entrapped 5(6)-carboxyfluorescein; assay type: biochemical; conditions: vesicles pH 6.5 inside, pH 5.5 outside
# Text: The proton efflux is expressed in terms of the fractional change in the fluorescence intensity of vesicle entrapped 5(6)-carboxyfluorescein as a function of time (sampling time was at 0.3 seconds interval). Equal molar amounts of channel forming compounds were used in each experiment to allow direct comparisons of channel-mediated proton transport activity. The amount of added channel forming compounds in each experiment ranged from of 2 to 20 nmoles corresponding to approximately 150 channels per liposome for the lowest concentrations to 1100 channels per liposome for the highest amount of added compounds.
# Formation of transmembrane channels was also inferred from its highly efficient proton transport activity. Vesicles were prepared having pH 6.5 inside and pH 5.5 in the outside bulk solution. The collapse of the imposed pH gradient in these vesicles, upon formation of the putative transmembrane channel structure, was studied by monitoring the fluorescence intensity of an entrapped pH-sensitive dye. (V.E. Carmichael et al, in J.Am. Chem. Soc. (1989), vol. 111, pages 767-769). […] Unilamellar vesicles were prepared by the reverse-phase evaporation using DPPC, OPPC, cholestrol in the ratio of 1:1:2 in a solution containing 5(6)-carboxyfluorescein (20 mM in phosphate/saline buffer: 137 mM NaCl, 2.6 mM KCl, 6.4 mM Na2HPO4, 1.4 mM KH2PO4, pH 6.5) according to the method of F. Szoka et al. in Proc. Natl. Acad. Sci. USA (1978), vol. 75, pages 4194-4198. […] Vesicles formed in this way are approximately 150 nanometer in diameter as determined by electron microscopy. […] To the cuvett, through an injector port, […] of the channel forming compounds in DMSO was added with continuous fluorescence monitoring at 520 nm (excitation at 470 nm). The observed data were then normalized for comparison into the fractional change in fluorescence ((I0−It)/(I0−I∞)) (V. E. Carmichael et al, in J.Am. Chem. Soc. (1989), vol. 111, pages 767-769)). […]
# [2] = Single channel conductance, micro patch clamp on planar lipid bilayers; assay type: biochemical; conditions: for single channel conductance: peptide in the range of 10^−7 M in the subphase
# Text: FIG. 26 illustrates a 140 second continuous K^+ single channel conductance recording at 50 mV of the channel forming compounds indicated in FIG. 24. Open-closed transitions indicate gating mechanisms which may reflect structural flexibility or rapid assembly-disassembly of the tubular membrane channel structures. Short and long channel life times in the open state could be distinguished with values of t(short)=0.71±0.03 ms and t(long)=37.14±8.99 ms (total number of events 510) with an overall open probability P(O) of 0.29. Peptide concentration at the subphase was 1.0×10^−7 M. As is expected for any such self-assembling channel forming species, channel opening lifetimes show significant dependence on the peptide concentration. Raising the added peptide concentration in the subphase to 2.0×10^−5 M, produces open channel lifetimes of […] >30 seconds.
# Formation of transmembrane channels was also inferred from its highly efficient proton transport activity. Vesicles were prepared having pH 6.5 inside and pH 5.5 in the outside bulk solution. The collapse of the imposed pH gradient in these vesicles, upon formation of the putative transmembrane channel structure, was studied by monitoring the fluorescence intensity of an entrapped pH-sensitive dye. (V.E. Carmichael et al, in J.Am. Chem. Soc. (1989), vol. 111, pages 767-769). […] Unilamellar vesicles were prepared by the reverse-phase evaporation using DPPC, OPPC, cholestrol in the ratio of 1:1:2 in a solution containing 5(6)-carboxyfluorescein (20 mM in phosphate/saline buffer: 137 mM NaCl, 2.6 mM KCl, 6.4 mM Na2HPO4, 1.4 mM KH2PO4, pH 6.5) according to the method of F. Szoka et al. in Proc. Natl. Acad. Sci. USA (1978), vol. 75, pages 4194-4198. Liposomes were then sized by multiple extrusions through Nucleopore® polycarbonate membranes (10 times, 50 psi, using 0.8 and 2×0.4 micron filter stacks) and the untrapped 5(6)-carboxyfluorescein was removed by size exclusion chromatography (Sephadex G-25 column 1×30 cm) using the same phosphate/saline buffer according to the method of F. Olson et al. in Biochim. Biophys. Acta (1979), vol. 557, pages 9-23. Vesicles formed in this way are approximately 150 nanometer in diameter as determined by electron microscopy. (R. R. C. New, Ed. Liposomes, Oxford university Press, 1990). In each experiment, 70 ml of the stock vesicle solution (3.5×10^−3 M in phospholipids) was added to pH 5.5 buffer (1.3 ml, 137 mM NaCl, 2.6 mM KCl, 6.4 Na2HPO4, 1.4 KH2PO4) and placed in a 1 cm quartz cuvett inside a stirring thermojacketed sample holder of the florescence instrument and equilibrated at 25° C. for 15 minutes with gentle stirring. To the cuvett, through an injector port, […] of the channel forming compounds in DMSO was added with continuous fluorescence monitoring at 520 nm (excitation at 470 nm). The observed data were then normalized for comparison into the fractional change in fluorescence ((I0−It)/(I0−I∞)) (V. E. Carmichael et al, in J.Am. Chem. Soc. (1989), vol. 111, pages 767-769)). […] The lipid bilayers used were formed on the tip of patch pipettes using a mixture of synthetic POPE: POPS (4:1) (1-palmitoyl-2-oleoyl-Sn-glycero-3-phosphatidylethano lamine and -serine). Five to 10 ml of the peptide solution (1.0×10^−7 or 2.0×10^−6 M in 25% DMSO in buffer solution containing 500 mM NaCl or KCl, 5 mM CaCl2, 10 mM HEPES, pH 7.5) was added to 150 ml subphase volume resulting in spontaneous partitioning of the peptide into the membrane. Ion channels formed spontaneously after peptide was added to the subphase of lipid bilayers. […] Data acquisition and analysis were performed on a Gateway 2000/486 computer using pClamp software package and TL-1 labmaster interface. Acquisition rate was 0.1 ms and data were filtered at 2 kHz.
# The ultimate test in establishing and quantitating the transport efficiency of a membrane channel structure is to measure its single channel conductance using micro patch clamp techniques. […]
# [3] = K^+ recording at 50 mV, peptide 1.0×10^−7 M in subphase, 510 events
Substance,collapse of the imposed pH gradient upon addition of peptide [1],single channel conductance ([2]; 500 mM KCl) [pS],single channel conductance ([2]; 500 mM NaCl),actual rate of channel-mediated ion transport ([2]; K^+),"overall open probability P(O) ([2]; K^+ recording at 50 mV, peptide 1.0×10^−7 M in subphase)","channel life time in the open state, t(long) [2, 3] [ms]","channel life time in the open state, t(short) [2, 3] [ms]",actual rate of channel-mediated ion transport ([2]; Na^+),rate of ion transport relative to gramicidin A under similar conditions ([2]; gramicidin A value from literature),dependence of single channel conductance on applied voltage ([2]; measured range of 10-100 mV),open channel lifetimes ([2]; peptide concentration in the subphase raised to 2.0×10^−5 M) [s],"ion channel activity observed (membranes with activity) ([2]; symmetrical solutions of 500 mM NaCl or KCl, 5 mM CaCl2, 10 mM HEPES, pH 7.5)",ion transport rate / efficiency ([2]; single ion channel recordings)
"cyclo[-(Trp-D-Leu)3-Gln-D-Leu-] (cyclo(W[dL]W[dL]W[dL]Q[dL]); SMILES CC(C)C[C@H]1NC(=O)[C@H](CCC(N)=O)NC(=O)[C@@H](CC(C)C)NC(=O)[C@H](Cc2c[nH]c3ccccc23)NC(=O)[C@@H](CC(C)C)NC(=O)[C@H](Cc2c[nH]c3ccccc23)NC(=O)[C@@H](CC(C)C)NC(=O)[C@H](Cc2c[nH]c3ccccc23)NC1=O) [eight residue ion channel forming cyclic peptide, approximately 7.5 Å pore]",rapid collapse of the pH gradient,~65,approximately 55 pS,2.2×10^7 ion.sec^−1,0.29,37.14 ± 8.99,0.71 ± 0.03,1.8×10^7 ion.sec^−1,three,independent of the applied voltage,> 30,14 out of 22,
cyclo[-Gln-(D-Leu-Trp)4-D-Leu-] (cyclo(Q[dL]W[dL]W[dL]W[dL]W[dL]); SMILES CC(C)C[C@H]1NC(=O)[C@H](CCC(N)=O)NC(=O)[C@@H](CC(C)C)NC(=O)[C@H](Cc2c[nH]c3ccccc23)NC(=O)[C@@H](CC(C)C)NC(=O)[C@H](Cc2c[nH]c3ccccc23)NC(=O)[C@@H](CC(C)C)NC(=O)[C@H](Cc2c[nH]c3ccccc23)NC(=O)[C@@H](CC(C)C)NC(=O)[C@H](Cc2c[nH]c3ccccc23)NC1=O) [10-residue cyclic peptide forming 10 Å pores that transport glucose],,,,,,,,,,,,,> 10^7 ions.sec^−1
